# Results from patent US20040175762A1, “Screening system based on expression of abcg2 half transporter protein” (priority 2001, published 2004).
# pKi: −log10 of the molar value. Where two headings read alike, the source gives them in different places.
# Legend:
# human MDR1 protein = human MDR1 protein (Homo sapiens, UniProt P08183)
# Description: Data points indicate the mean±S.D. values of at least four measurements, performed in two or three different membrane preparations. Control values show the activity measured in the absence of added compounds.
# ABCG2 [1] = molecular target: T1, ABCG2 (Homo sapiens, UniProt Q9UNQ0, R482G); assay: Vanadate sensitive ATPase activity in isolated membranes of ABCG2-expressing Sf9 cells
# T1 sequence (Q9UNQ0 1-655 R482G): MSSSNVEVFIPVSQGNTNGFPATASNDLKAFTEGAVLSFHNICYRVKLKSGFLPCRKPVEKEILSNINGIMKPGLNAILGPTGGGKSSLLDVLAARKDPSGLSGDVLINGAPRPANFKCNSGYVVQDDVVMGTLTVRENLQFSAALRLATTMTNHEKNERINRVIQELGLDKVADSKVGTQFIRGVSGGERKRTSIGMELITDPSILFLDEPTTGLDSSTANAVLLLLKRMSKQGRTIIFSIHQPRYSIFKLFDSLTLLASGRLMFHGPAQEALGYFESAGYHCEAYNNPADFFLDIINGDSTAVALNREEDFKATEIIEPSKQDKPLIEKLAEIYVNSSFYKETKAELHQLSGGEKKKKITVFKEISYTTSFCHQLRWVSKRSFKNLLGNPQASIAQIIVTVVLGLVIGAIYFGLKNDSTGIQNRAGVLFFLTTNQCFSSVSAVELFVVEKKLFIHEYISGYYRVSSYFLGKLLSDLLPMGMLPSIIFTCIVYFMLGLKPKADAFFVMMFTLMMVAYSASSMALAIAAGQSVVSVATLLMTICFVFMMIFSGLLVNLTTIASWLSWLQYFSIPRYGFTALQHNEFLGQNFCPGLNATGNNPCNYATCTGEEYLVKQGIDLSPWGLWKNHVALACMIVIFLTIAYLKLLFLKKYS
# Description: FIG. 2: Comparison of the effects of various compounds on the vanadate sensitive ATPase activity in isolated Sf9 membranes of ABCG2 (FIG. 2a) or MDR1 (FIG. 2b) expressing Sf9 cells. […] Data points indicate the mean±S.D. values of at least four measurements, performed in two or three different membrane preparations.
# Individual clones expressing high levels of the human ABCG2 were obtained by end-point dilution and subsequent amplification. The clone producing the highest yield of the ABCG2 protein was selected by immunoblotting (see below).
# The reaction mixture contained 40 mM MOPS-Tris (pH 7.0), 50 MM KCl, 2 mM dithiothreitol, 500 μM EGTA-Tris, 5 mM Na-azide, 1 mM oubain and 5-20 μg membrane protein. […] The vanadate sensitive faction was determined in the presence of 1 mM Na-orthovanadate.
# ABCG2 [2] = molecular target: T1, ABCG2
# Protocol: FIG. 5. Mitoxantrone uptake in intact Sf9 cells expressing ABCG2 variants.
# Flow-cytometry determination of MX fluorescence after 30 min incubation at 37° C.
# Cells were washed once and suspended in HPMI. Aliquots of the suspension containing 3×10^5 cells were incubated with or without the addition of 5 μM MX, and also with 5 μM MX+10 μM FTC (a specific inhibitor of ABCG2). After an incubation for 30 minutes at 37° C. the cells were washed with ice-cold HPMI medium and than suspended in ice-cold HPMI containing 1.51 μl 10 mg/ml propidium-iodide and stored on ice until the flow cytometry measurements. […] Events were counted up to 15000 and dead cells were excluded based on propidium iodide staining.
# ABCG2 [3] = molecular target: T1, ABCG2; assay: Hoechst dye uptake in intact Sf9 cells expressing ABCG2 (fluorescence spectrophotometry); format: cell-based; design: removing the full length human ABCG2 cDNA (G482 variant); expressed in transfected cells; host or cells: Sf9 insect cells infected with recombinant baculovirus
# Protocol: FIG. 6. Hoechst dye uptake followed by fluorescence spectrophotometry in Sf9 cells expressing ABCG2482G (Panel A) or ABCG2 K86M mutant (Panel B). Abscissa: time in seconds. Ordinate: relative fluorescence in arbitrary units.
# Hoechst33342 uptake—Hoechst dye uptake (5 μM) was measured in a fluorescence spectrophotometer at 350 nm (excitation)/460 nm (emission), by using 3×10^5 cells in a HPMI solution. This dye becomes fluorescent only in a complex with DNA (Haugland, MP catalogue). The initial increase of fluorescence is due to a rapid dye uptake and nuclear staining in dead cells, while further cellular dye uptake is reflected by an increase in fluorescence. At the end of each experiment, for standardization, a full cellular staining is obtained by the addition of 8 μM digitonin, disrupting the integrity of the cell membrane.
# [4] = relative to the ATPase activity measured in the absence of compound
# human MDR1 protein, sequence (P08183 whole entry): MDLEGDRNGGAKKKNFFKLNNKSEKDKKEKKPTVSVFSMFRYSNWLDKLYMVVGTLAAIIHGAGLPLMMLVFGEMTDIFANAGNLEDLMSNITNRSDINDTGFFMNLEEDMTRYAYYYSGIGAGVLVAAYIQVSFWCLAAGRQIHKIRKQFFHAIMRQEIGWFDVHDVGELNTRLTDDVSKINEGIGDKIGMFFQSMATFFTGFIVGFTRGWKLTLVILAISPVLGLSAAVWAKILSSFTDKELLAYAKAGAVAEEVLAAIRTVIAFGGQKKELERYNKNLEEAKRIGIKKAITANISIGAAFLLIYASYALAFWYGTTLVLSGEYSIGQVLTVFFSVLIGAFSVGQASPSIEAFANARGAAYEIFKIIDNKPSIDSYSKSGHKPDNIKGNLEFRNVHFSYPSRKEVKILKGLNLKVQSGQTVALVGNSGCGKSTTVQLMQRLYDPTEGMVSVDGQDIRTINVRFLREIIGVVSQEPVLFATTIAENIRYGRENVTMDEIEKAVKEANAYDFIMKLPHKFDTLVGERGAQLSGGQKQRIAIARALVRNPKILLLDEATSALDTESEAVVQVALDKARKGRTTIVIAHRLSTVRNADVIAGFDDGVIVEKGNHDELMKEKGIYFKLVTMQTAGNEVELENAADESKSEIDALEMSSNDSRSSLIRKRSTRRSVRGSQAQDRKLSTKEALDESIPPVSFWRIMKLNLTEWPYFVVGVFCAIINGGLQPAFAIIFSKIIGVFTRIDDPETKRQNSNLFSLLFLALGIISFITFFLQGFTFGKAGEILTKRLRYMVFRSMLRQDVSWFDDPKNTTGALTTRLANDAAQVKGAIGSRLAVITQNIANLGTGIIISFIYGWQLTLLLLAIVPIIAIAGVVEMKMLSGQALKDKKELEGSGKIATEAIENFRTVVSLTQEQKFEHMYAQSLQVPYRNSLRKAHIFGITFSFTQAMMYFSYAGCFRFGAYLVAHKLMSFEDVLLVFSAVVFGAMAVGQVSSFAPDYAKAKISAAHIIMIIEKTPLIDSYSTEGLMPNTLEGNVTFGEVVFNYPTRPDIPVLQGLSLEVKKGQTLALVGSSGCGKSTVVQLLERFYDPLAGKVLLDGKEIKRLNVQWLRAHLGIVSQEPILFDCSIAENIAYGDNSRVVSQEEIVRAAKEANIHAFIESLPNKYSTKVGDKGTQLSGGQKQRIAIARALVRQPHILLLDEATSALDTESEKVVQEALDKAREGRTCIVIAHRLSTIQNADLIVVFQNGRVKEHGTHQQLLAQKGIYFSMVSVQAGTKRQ
compound,measurement,setting,value
"CC(=O)OCOC(=O)CN(CC(=O)OCOC(C)=O)Cc1cc2c(cc1OC(C)=O)Oc1cc(OC(C)=O)c(CN(CC(=O)OCOC(C)=O)CC(=O)OCOC(C)=O)cc1C21OC(=O)c2ccccc21 [Calcein-AM, calcein acetoxy-methylesther]","Kact, MDR1-ATPase",human MDR1 protein,about 1 μM
same,Stimulation of MDR1-ATPase,human MDR1 protein,4.5 fold
same,Effect on ABCG2-ATPase activity,ABCG2 [1]; result in words,no effect
COc1cccc2c1C(=O)c1c(O)c3c(c(O)c1C2=O)C[C@@](O)(C(C)=O)C[C@@H]3O[C@H]1C[C@H](N)[C@H](O)[C@H](C)O1 [Daunorubicin],Emax,"ABCG2 [1]; human, pH 7",50%
same,Kact,"ABCG2 [1]; human, pH 7","2,5 mM"
COc1cccc2c1C(=O)c1c(O)c3c(c(O)c1C2=O)C[C@@](O)(C(=O)CO)C[C@@H]3O[C@H]1C[C@H](N)[C@H](O)[C@H](C)O1 [Doxorubicin],Emax,"ABCG2 [1]; human, pH 7",30%
same,Kact,"ABCG2 [1]; human, pH 7",5 mM
COc1ccc2c3c([nH]c2c1)[C@H](C=C(C)C)N1C(=O)[C@@H]2CCCN2C(=O)[C@@H]1C3 [Fumitremorgin C],Effect on active extrusion of fluorescent compounds by ABCG2 482 variants,"ABCG2 [2]; 482R, 482G, 482T variants, intact Sf9 cells",inhibited
same,Effect on verapamil stimulated MDR1-ATPase activity,human MDR1 protein; 33 μM verapamil,no significant effect
same,Effect on MDR1-ATPase activity,"human MDR1 protein; basal, result in words",no significant effect
same,pKi,ABCG2 [1],5.89
same,Maximum inhibition (%),ABCG2 [1]; [4],74%
same,Effect on ABCG2-ATPase activity,ABCG2 [1]; result in words,strongly inhibited
"CCOc1ccc(-c2nc3ccc(-c4nc5ccc(N6CCN(C)CC6)cc5[nH]4)cc3[nH]2)cc1 [Hoechst dye, Hoechst33342]",Hoechst dye extrusion by ABCG2-expressing Sf9 cells,ABCG2 [3],actively extrude
Nc1ncnc2c1ncn2[C@@H]1O[C@H](COP(=O)(O)OP(=O)([O-])OP(=O)([O-])O)[C@@H](O)[C@H]1O.[Mg+2] [MgATP],Km,ABCG2 [1],~300 µM
same,MgATP concentration producing half-maximum membrane ATPase activity,ABCG2 [1],0.3 mM
same,Km,"ABCG2 [1]; read-out: KM ATP, without an added substrate",600 µM
O=C1c2c(O)ccc(O)c2C(=O)c2c(NCCNCCO)ccc(NCCNCCO)c21 [Mitoxantrone],Mitoxantrone extrusion by ABCG2-expressing Sf9 cells,"ABCG2 [2]; intact cells, flow cytometry",actively extrude
same,Effect on MDR1-ATPase activity,human MDR1 protein,no significant effect
same,Effect on ABCG2-ATPase activity,"ABCG2 [1]; human, pH 7",stimulated the ABCG2-ATPase activity in a concentration dependent manner
same,Emax,"ABCG2 [1]; human, pH 7",40%
same,Kact,"ABCG2 [1]; human, pH 7",7 mM
"CCN1C(=O)C=CC1=O [NEM, N-ethylmaleimide]",pKi,ABCG2 [1],5.00
[Na+].[Na+].[Na+].[O]=[V]([O-])([O-])[O-] [Na-orthovanadate],pKi,ABCG2 [1],~4.70
Rhodamine 123,Kact,ABCG2 [1],"4,5 mM"
same,Maximum stimulation (%),ABCG2 [1]; [4],20%
